These results are taken from patent EP1363899B1, “QUINAZOLONE DERIVATIVES AS ALPHA 1A/B ADRENERGIC RECEPTOR ANTAGONISTS” (F.HOFFMANN-LA ROCHE AG, priority 2001, dated 2002).

In one assay the target is T1, alpha-1B adrenoceptor (Homo sapiens, UniProt P35368).
T1 construct: expressed in transfected cells; host or cells: CHO-K1
T1 sequence (P35368 1-520): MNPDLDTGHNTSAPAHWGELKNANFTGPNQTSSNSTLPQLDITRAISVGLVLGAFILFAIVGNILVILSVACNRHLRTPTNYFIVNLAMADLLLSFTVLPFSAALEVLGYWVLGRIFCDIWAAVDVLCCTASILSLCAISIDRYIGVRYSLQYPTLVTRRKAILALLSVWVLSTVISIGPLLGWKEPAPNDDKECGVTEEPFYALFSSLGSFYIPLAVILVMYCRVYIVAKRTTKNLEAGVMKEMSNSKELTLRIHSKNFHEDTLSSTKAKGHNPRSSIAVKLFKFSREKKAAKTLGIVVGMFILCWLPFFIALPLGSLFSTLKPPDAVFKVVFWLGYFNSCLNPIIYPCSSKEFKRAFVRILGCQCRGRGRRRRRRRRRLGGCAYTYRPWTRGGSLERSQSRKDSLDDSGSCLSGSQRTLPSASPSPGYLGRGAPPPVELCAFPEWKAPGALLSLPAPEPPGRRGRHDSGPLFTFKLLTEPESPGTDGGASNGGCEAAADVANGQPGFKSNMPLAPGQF
The assay can be described thus: [3H]prazosin binding (alpha1-adrenoceptor) assay, alpha-1B. As to conditions: membranes of transfected CHO-KI cells, read-out: affinity towards the alpha-1B adrenoceptor (pKi) (converted). How it is done: (§1) Alpha1A, alpha1B, and alpha1D adrenoceptor transfected CHO-KI cells, prepared using the methods described by Chang et al., FEBS Lett. 1998, 422:279-283, were grown to confluence in T-162 tissue culture flasks in Ham's F-12 culture medium supplemented with 10% fetal bovine serum, geneticin (150 µg/mL) and streptomycin/penicillin (30 µg/mL/30 µg/mL) at 37 °C in 7% CO2. Cells were harvested by incubating with phosphate-buffered saline (PBS) containing 30 µM EDTA for 5-10 min at 37 °C. Cells were pelleted by centrifuging at 500 x g for 5 min, and the pelleted cells were homogenized (Polytron homogenizer) in 10 vols (w/v) of 50 mM Tris, 1 mM EDTA, (homogenisation buffer, pH 7.4 at 4 °C). The homogenate was centrifuged at 45,000 x g for 20 min. The pellet was resuspended in the homogenizing buffer and rehomogenized. The resulting homogenate was centrifuged at 45,000 x g for 20 min. The pellet was resuspended in 50 mM Tris buffer (pH 7.4 at 4 °C), aliquoted, frozen, and stored at -80 °C for further use.
(§2) The membranes were thawed at room temperature and diluted in assay buffer (50 mM Tris buffer at […]) at 37 °C and homogenized using the Polytron tissue disrupter. The membranes were incubated with the radioligand ([^3H]prazosin, NEN, 0.1 - 0.5 nM) and test compound at 37 °C for 30 min. The membranes were then filtered over polyethyleneimine-treated GF/B unifilter plates using a Packard Filtermate Harvester and washed with ice-cold 50 mM Tris-HCl, 1 mM EDTA buffer (3 x 3 sec. washes). Scintillation cocktail was added to the filter plates and bound radioligand determined by liquid scintillation spectrophotometry.
(§3) For each experiment, total binding (in the absence of any test or reference compounds) and non-specific binding (10 µM phentolamine) were determined. For each sample tested, the concentration producing 50% inhibition of binding (IC50) and Hill Slope (nH) was determined using iterative non-linear curve fitting techniques with Kaleidagraph (Synergy Software) or other appropriate software. If the radioligand KD was known, the inhibition dissociation constant (K1) of each ligand was determined according to the method of Cheng and Prusoff (Cheng, Y-C. and Prusoff, W.H., Biochem. Pharmacol., 1973, 22, 3099-3108).

A further assay addresses T2, alpha-1D adrenoceptor (Homo sapiens, UniProt P25100).
T2 construct: expressed in transfected cells; host or cells: CHO-K1
T2 sequence (P25100 1-572): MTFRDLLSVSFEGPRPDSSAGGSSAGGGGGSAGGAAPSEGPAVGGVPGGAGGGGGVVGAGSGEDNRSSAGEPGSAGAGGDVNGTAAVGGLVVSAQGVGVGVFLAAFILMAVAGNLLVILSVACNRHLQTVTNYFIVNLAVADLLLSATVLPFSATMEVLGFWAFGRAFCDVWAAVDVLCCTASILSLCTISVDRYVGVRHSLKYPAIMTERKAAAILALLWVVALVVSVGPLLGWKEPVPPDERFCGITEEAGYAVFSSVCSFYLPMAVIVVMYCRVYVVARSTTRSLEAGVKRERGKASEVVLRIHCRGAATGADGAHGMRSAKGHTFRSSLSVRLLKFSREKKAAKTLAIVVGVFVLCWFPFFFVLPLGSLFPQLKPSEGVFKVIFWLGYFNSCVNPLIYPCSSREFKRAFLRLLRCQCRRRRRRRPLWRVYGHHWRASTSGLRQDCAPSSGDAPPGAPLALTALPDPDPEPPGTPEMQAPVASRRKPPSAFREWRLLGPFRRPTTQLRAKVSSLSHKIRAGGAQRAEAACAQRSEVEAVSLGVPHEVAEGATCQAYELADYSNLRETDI
Description: [3H]prazosin binding (alpha1-adrenoceptor) assay, alpha-1D. As to conditions: membranes of transfected CHO-KI cells, read-out: affinity towards the alpha-1D adrenoceptor (pKi) (converted). The protocol: as §1, §2, §3

Another assay concerns the target T3, alpha-1A adrenoceptor (Homo sapiens, UniProt P35348).
T3 construct: expressed in transfected cells; host or cells: CHO-K1
T3 sequence (P35348 1-466): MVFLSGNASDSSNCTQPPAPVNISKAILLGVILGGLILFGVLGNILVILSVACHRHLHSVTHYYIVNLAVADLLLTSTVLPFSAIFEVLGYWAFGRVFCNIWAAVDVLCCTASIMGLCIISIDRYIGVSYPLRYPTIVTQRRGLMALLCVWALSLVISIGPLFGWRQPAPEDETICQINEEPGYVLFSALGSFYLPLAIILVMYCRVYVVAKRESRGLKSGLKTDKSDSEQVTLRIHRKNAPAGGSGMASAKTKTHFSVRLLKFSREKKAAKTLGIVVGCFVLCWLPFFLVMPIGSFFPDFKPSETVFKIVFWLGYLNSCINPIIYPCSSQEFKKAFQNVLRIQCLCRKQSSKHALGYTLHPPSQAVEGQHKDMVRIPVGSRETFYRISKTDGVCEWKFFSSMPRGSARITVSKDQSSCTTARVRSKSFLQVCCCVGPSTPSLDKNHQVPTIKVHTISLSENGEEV
The assay can be described thus: [3H]prazosin binding (alpha1-adrenoceptor) assay, alpha-1A. To be noted: membranes of transfected CHO-KI cells, read-out: affinity towards the alpha-1A adrenoceptor (pKi) (converted). How it is done:
as §1, §2, §3

The test system of assay [1] is hypogastric nerve stimulation-induced increases in intraurethral pressure and phenylephrine-induced increases in diastolic blood pressure. Description: Dog in vivo blood and intraurethral pressure assay. To be noted: anesthetized mongrel dogs, i.v. bolus, increasing doses. How it is done: The following describes an in vivo assay for measuring the relative effect of test compounds on hypogastric nerve stimulation-induced increases in intraurethral pressure and phenylephrine-induced increases in diastolic blood pressure in anesthetized dog.
Mongrel dogs (10 to 20 kg) were fasted for 12 to 18 hours and anesthetized with […] (35 mg/kg, i.v.). An endotracheal tube was inserted and thereafter the lungs were mechanically ventilated with room air. The right femoral vein was isolated and cannulated with two polyethylene cannulae, one for the administration of a continuous infusion of phenobarbital sodium (5 to 10 mg/kg/hr) and the other for bolus administration of test substances. The right femoral artery was isolated and cannulated to the abdominal aorta with a fluid filled polyethylene cannula connected to an external pressure transducer for monitoring diastolic aortic pressure (DAP). The bladder was exposed via a ventral midline abdominal incision and emptied of urine through a 22 gauge needle. The bladder was cannulated through a stab incision with a water filled balloon catheter connected to an external pressure transducer for monitoring prostatic intraurethral pressure (IUP). The right hypogastric nerve (HGN) was carefully isolated and attached to a Dastre's electrode for nerve stimulation. […]

`COc1cc2[nH]c(N3CCn4c(cnc4N4CCOCC4)C3)nc(=O)c2cc1OC` [Compound 307, 6,7-dimethoxy-2-(3-morpholin-4-yl-5,6-dihydro-8H-imidazo[1,5-α]pyrazin-7-yl)-1H-quinazolin-4-one]: the Ki on alpha-1B adrenoceptor was 17.4 nM; on alpha-1D adrenoceptor, 123 nM; at alpha-1A adrenoceptor it was 7.76 nM.
In the same order, the values of `COc1cc2nc(N3CCc4c(cccc4S(=O)(=O)N4CCN(C)CC4)C3)[nH]c(=O)c2cc1OC` [Compound 401, 6,7-dimethoxy-2-[5-(4-methyl-piperazine-1-sulfonyl)-3,4-dihydro-1H-isoquinolin-2-yl]-3H-quinazolin-4-one] are 52.5 nM, 1170 nM and 15.1 nM.
In the same order, the values of `COc1cc2nc(N3CCc4ccc(S(=O)(=O)N5CCOCC5)cc4C3)[nH]c(=O)c2cc1OC` [Compound 404, 6,7-dimethoxy-2-[7-(morpholine-4-sulfonyl)-3,4-dihydro-1H-isoquinolin-2-yl]-3H-quinazolin-4-one] are 63.1 nM, 275 nM and 8.13 nM.
Take `COc1cc2nc(N3CCc4c(ncn4Cc4ccccc4)C3)[nH]c(=O)c2cc1OC` [Compound 501, 2-(1-benzyl-1,4,6,7-tetrahydro-imidazo[4,5-c]pyridin-5-yl)-6,7-dimethoxy-3H-quinazolin-4-one]: the Ki was 20 nM on alpha-1B adrenoceptor, 347 nM on alpha-1D adrenoceptor and 3.39 nM at alpha-1A adrenoceptor.
As for `COc1cc2nc(N3CCc4c(ncn4-c4ccccc4)C3)[nH]c(=O)c2cc1OC` [Compound 602, 6,7-dimethoxy-2-(1-phenyl-1,4,6,7-tetrahydro-imidazo[4,5-c]pyridin-5-yl)-3H-quinazolin-4-one], the Ki at alpha-1B adrenoceptor was 4.27 nM; at alpha-1D adrenoceptor, 37.2 nM; on alpha-1A adrenoceptor it was 0.832 nM.
The matching figures for `COc1ccc(-n2cnc3c2CCN(c2nc4cc(OC)c(OC)cc4c(=O)[nH]2)C3)cc1` [Compound 608, 6,7-dimethoxy-2-[1-(4-methoxy-phenyl)-1,4,6,7-tetrahydro-imidazo[4,5-c]pyridin-5-yl]-3H-quinazolin-4-one]: 5.89 nM, 83.2 nM and 2.75 nM.
In the same order, the values of `COc1cc2nc(N3CCc4c(ncn4-c4ccc5c(c4)OCO5)C3)[nH]c(=O)c2cc1OC` [Compound 612, 2-(1-benzo[1,3]dioxol-5-yl-1,4,6,7-tetrahydro-imidazo[4,5-c]pyridin-5-yl)-6,7-dimethoxy-3H-quinazolin-4-one] are 12.3 nM, 178 nM and 2.69 nM.
For the molecule `COc1cc2[nH]c(N3CCc4c(ncn4C4CCCCC4)C3)nc(=O)c2cc1OC` [Compound 619, 2-(1-cyclohexyl-1,4,6,7-tetrahydro-imidazo[4,5-c]pyridin-5-yl)-6,7-dimethoxy-1H-quinazolin-4-one], the Ki on alpha-1B adrenoceptor is 7.59 nM; at alpha-1D adrenoceptor it was 81.3 nM; at alpha-1A adrenoceptor, 3.72 nM.
In the same order, the values of `COc1cc2nc(N3CCc4c(cccc4N=CN(C)C)C3)[nH]c(=O)c2cc1OC` [Compound 801, N-[2-(6,7-dimethoxy-4-oxo-3,4-dihydro-quinazolin-2-yl)-1,2,3,4-tetrahydro-isoquinolin-5-yl]-N,N-dimethyl-formamidine] are 4.47 nM, 372 nM and 2.75 nM.
In the same order, the values of `COc1cc2nc(N3CCc4c(cccc4NC4=NCCC4)C3)[nH]c(=O)c2cc1OC` [Compound 810, 2-[5-(4,5-dihydro-3H-pyrrol-2-ylamino)-3,4-dihydro-1H-isoquinolin-2-yl]-6,7-dimethoxy-3H-quinazolin-4-one] are 6.61 nM, 398 nM and 9.55 nM.
On to `COc1cc2nc(N3CCc4c(cccc4-c4cnccc4N)C3)[nH]c(=O)c2cc1OC` [Compound 902, 2-[5-(4-amino-pyridin-3-yl)-3,4-dihydro-1H-isoquinolin-2-yl)-6,7-dimethoxy-3H-quinazolin-4-one], for which the values for the Ki on alpha-1B adrenoceptor, on alpha-1D adrenoceptor and on alpha-1A adrenoceptor were 56.2 nM, 692 nM and 25.1 nM, respectively.
Turning to `COc1cc2nc(N3CCN(C(=O)c4ccco4)CC3)nc(N)c2cc1OC` [prazosin], the “inhibition of HGN stimulation-induced increases in IUP and of phenylephrine-induced increases in DAP” value in assay [1] was “inhibited increases in IUP and DAP in similar fashion”.
